In patent publication US20240400518A1, “SOS1 INHIBITOR AND USE THEREOF” (KANAPH THERAPEUTICS INC., priority 2021, published 2024):

What was measured:
SOS1 = target: T1, SOS1 (Homo sapiens, UniProt Q07889); test: SOS-catalyzed nucleotide exchange assay (HTRF, SOS1-mediated GTP loading of KRAS G12D); format: biochemical; conditions: GST-KRAS G12D, HIS-SOS1cat, IC50 class
T1 construct: adding equal amounts of HIS—SOS1cat (160 nM; Cytoskeleton, US); His (N); purchased Cytoskeleton, US
T1 sequence (Q07889 564-1049 limits assumed): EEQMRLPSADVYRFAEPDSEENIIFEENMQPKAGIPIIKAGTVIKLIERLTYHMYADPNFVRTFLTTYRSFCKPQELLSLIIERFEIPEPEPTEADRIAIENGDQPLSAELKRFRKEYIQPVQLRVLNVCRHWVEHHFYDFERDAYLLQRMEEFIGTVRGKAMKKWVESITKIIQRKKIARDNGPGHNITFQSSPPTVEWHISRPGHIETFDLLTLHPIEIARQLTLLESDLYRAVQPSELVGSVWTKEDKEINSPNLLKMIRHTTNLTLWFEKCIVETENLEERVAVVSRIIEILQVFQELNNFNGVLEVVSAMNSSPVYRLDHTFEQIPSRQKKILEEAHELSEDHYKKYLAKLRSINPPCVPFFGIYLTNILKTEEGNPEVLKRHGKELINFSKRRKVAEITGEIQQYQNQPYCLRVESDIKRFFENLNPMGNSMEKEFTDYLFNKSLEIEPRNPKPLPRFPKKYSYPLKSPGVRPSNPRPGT
Procedure: SOS1 activity was measured by SOS1-mediated GTP loading quantification of KRAS^G12D. GTP loaded KRAS^G12D was detected by HTRF (Homogeneous Time Resolved Fluorescence) using anti-GST terbium (Cisbio, France) as a donor and a fluorescence GTP analogue (EDA-GTP-DY-647P1, [DY-647P1 labeled 2′/3′-O-(2-aminoethyl-carbamoyl)guanosine-5′-triphosphate (Jena bioscience, Germany)]) as an acceptor.
Assay buffer was composed of 10 mM HEPES pH 7.4, 150 mM NaCl, 5 mM MgCl2, 1 mM DTT, 0.05% BSA Fraction V pH 7.0 (Sigma) and 0.0025% (v/v) Igepal (Sigma). KRAS^G12D working solution was prepared by adding equal amounts of GST-KRAS^G12D (100 nM) and anti-GST-terbium (2 nM; Cisbio, France) to the assay buffer and culturing on ice for 10 minutes. SOS1cat working solution was prepared by adding equal amounts of HIS—SOS1cat (160 nM; Cytoskeleton, US) and EDA-GTP-DY-647P1 (200 nM; Jena bioscience, Germany) to the assay buffer. Control solution was prepared by adding equal volumes of EDA-GTP-DY-647P1 and the assay buffer for normalization control to exclude GEF-independent GTP loading and background signals. In order to induce a reaction, 5 μL of the SOS1cat working solution or the control solution was injected into each well. 5 μL of a compound having various concentrations from 128 pM to 10 μM was added to wells containing the SOS1cat working solution and incubated at room temperature for 10 minutes to bind to SOS1.
10 μL of the KRAS^G12D solution was added to each well and incubated for 30 minutes at room temperature while shaking. HTRF was measured using a Thermo Varioskan (excitation 334 nm, emission 665 nm). The IC50 of each inhibitor was analyzed using Graphad Prism.

KRAS^G12C::SOS1 = target: T2, KRAS^G12C::SOS1 (Homo sapiens, UniProt Q07889); test: KRAS G12C::SOS1 protein-protein interaction (PPI) inhibition assay (HTRF binding kit); conditions: max inhibitor concentration 3 μM, three replicates, IC50 class
T2 construct: purchased CISBIO, FRANCE 64KRASG12PEH
T2 sequence (Q07889 1-1333): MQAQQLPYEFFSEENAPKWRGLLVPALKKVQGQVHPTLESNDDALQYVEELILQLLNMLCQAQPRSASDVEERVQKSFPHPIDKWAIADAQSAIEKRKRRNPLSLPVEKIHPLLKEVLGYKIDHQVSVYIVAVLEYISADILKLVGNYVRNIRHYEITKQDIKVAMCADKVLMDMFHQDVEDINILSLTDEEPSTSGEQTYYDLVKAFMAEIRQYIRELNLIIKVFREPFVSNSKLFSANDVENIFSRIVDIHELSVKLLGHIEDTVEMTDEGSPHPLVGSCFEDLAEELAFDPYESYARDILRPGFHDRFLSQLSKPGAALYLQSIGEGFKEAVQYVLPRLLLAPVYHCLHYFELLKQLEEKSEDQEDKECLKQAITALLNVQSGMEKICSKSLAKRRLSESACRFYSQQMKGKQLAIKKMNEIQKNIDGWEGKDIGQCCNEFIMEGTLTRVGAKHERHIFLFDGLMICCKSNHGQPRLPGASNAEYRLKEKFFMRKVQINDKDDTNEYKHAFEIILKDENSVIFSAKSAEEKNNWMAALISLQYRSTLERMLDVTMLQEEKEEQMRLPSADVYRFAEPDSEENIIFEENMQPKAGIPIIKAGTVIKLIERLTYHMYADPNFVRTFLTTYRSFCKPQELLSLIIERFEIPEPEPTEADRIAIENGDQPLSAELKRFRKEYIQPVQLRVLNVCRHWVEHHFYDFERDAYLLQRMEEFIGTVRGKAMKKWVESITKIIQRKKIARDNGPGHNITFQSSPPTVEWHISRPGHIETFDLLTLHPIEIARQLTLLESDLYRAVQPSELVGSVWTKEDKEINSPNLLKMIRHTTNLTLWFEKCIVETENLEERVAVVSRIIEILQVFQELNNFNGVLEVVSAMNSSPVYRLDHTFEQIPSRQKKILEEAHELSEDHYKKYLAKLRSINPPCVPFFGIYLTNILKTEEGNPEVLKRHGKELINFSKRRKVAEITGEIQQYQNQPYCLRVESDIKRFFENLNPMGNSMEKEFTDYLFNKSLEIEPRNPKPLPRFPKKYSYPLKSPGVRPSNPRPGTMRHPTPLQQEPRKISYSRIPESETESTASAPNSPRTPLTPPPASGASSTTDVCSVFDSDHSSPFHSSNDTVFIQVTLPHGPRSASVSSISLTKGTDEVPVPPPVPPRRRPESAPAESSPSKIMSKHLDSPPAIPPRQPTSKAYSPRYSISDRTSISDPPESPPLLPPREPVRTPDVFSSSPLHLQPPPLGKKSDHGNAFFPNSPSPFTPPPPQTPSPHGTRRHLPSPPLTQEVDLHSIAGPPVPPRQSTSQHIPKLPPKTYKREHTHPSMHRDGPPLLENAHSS
Procedure: Protein-protein interaction between SOS1 and KRAS^G12C was detected using KRAS G12C/SOS1 binding kit from CISBIO (64KRASG12PEH, CISBIO, FRANCE) according to the manufacturer's assay method. Briefly, the maximum concentration of an inhibitor sample was set to be 3 μM, and the inhibitor sample was diluted 7 times by 1/3, and samples having a total of 8 concentrations were prepared. In HTRF (Homogeneous Time-Resolved Fluorescence) exclusive 96-well low-volume white plate (66PL96005, CISBIO, FRANCE), 2 μL of an inhibitor sample prepared for each concentration, 5 μL of a mixed solution of Tag1 labeled KRAS^G12C protein and GTP diluted with the dilution solution provided by the manufacturer, and 5 μL of Tag2 labeled SOS1 protein were mixed, and added with 8 μL of a diluted solution where anti-Tag1 KRAS^G12CXL665 (HTRF acceptor) labeled antibody and anti-Tag2 SOS1 Terbium cryptate (HTRF donor) labeled antibody were mixed in an equal ratio and cultured at room temperature for 2 hours.

Structure (SMILES) | IC50 (SOS1) | IC50 (KRAS^G12C::SOS1)
CC(=O)N1CCC(n2nc(C(=O)N[C@H](C)c3cc(N)cc(C(F)(F)F)c3)ccc2=O)CC1 [Example 118, 1-(1-acetylpiperidin-4-yl)-N-[(1R)-1-[3-amino-5-(trifluoromethyl)phenyl]ethyl]-6-oxo-1,6-dihydropyridazine-3-carboxamide] | 1 to 10 µM | 
C[C@@H](NC(=O)c1ccc(=O)n(-c2ccc(OC(F)(F)F)cc2)n1)c1cc(N)cc(C(F)(F)F)c1 [Example 154] | 1 to 10 µM | < 1 µM
